Source: the NIST ThermoML archive (doi:10.1021/acs.jced.9b00021)
“And” between values parts separate entries of the source, which are not always exact repeats. Equal values may be shown once. ± gives the expanded uncertainty stated by the source.

Conditions: 400 kPa, Liquid, Concentric cylinders viscometry

CN(CCO)CCO [N-methyldiethanolamine]
viscosity (298.15 K): 73.1 ± 0.58 mPa·s | viscosity (303.15 K): 55.89 ± 0.39 mPa·s | viscosity (308.15 K): 43.45 ± 0.35 mPa·s | viscosity (313.15 K): 34.15 ± 0.3 mPa·s | viscosity (318.15 K): 27.15 ± 0.27 mPa·s | viscosity (323.15 K): 21.82 ± 0.24 mPa·s | viscosity (328.15 K): 17.79 ± 0.23 mPa·s | viscosity (333.15 K): 14.63 ± 0.22 mPa·s | viscosity (338.15 K): 12.2 ± 0.21 mPa·s | viscosity (343.15 K): 10.21 ± 0.21 mPa·s | viscosity (348.15 K): 8.61 ± 0.21 mPa·s and 8.6 ± 0.21 mPa·s | viscosity (353.15 K): 7.31 ± 0.21 mPa·s | viscosity (358.15 K): 6.28 ± 0.2 mPa·s and 6.29 ± 0.2 mPa·s | viscosity (363.15 K): 5.43 ± 0.2 mPa·s | viscosity (368.15 K): 4.72 ± 0.2 mPa·s | viscosity (373.15 K): 4.12 ± 0.2 mPa·s
